{"source": "patent US6524863B1", "about": "“High throughput HPLC method for determining Log P values” (Scynexis Chemistry & Automation, Inc., priority 1999, dated 2003)", "key": {"Isocratic HPLC Log P": {"experiment": "Isocratic HPLC Log P", "conditions": "for Isocratic Log P: isocratic method, no details given", "text": "(§1) Isocratic data, measured at certain eluent compositions (typically as log k′x, for a given eluent composition X), can be used to calculate Log P data."}, "[1]": {"experiment": "Gradient HPLC Log P determination from retention time (new method)", "experimental": "(§2) An evaporated light scattering detector (Richard Scientific) and a platform LC mass spectrometer (Micromass) were used as detectors.\n(§3) The mobile phase was a binary gradient of methanol/water. The stationary phase was a 4.6×50 mm column packed with 5 micron ODS-AQ. The injection size was 5 μL. The mobile phase gradient was adjusted to obtain a Log P nearly equal to the retention time on the HPLC column.\n(§4) After 6.1 minutes, the column was set to re-equilibrate.\n(§5) Retention times (X), shake flask log P (Y), slope and intercept from the above plot were used to calculate log P for these standards.\n(§6) When log P was plotted versus the log of the capacity factor K for these standards, an following exponential curve was obtained, as shown in FIG. 3.\n(§7) Using this exponential equation and HPLC retention times of these standards, Log P and Log K were calculated and compared with the retention times and literature Log P values."}, "[2]": {"conditions": "cited from earlier work"}, "physchem [3]": {"experiment": "physchem", "experimental": "as §2, §3, §4, §5, §6, §7"}, "physchem [4]": {"experiment": "physchem", "remark": "listed apart in the source", "text": "as §1"}, "[5]": {"conditions": "New Method Calc. Log P Y = 1.009X + 0.029, calculated from average gradient HPLC retention time X (ODS-AQ 4.6×50 mm, methanol/water), linear fit"}, "[6]": {"conditions": "Log P calc. by slope, calculated from Log K (capacity factor) with exponential equation Y=0.6972e^1.5966X"}, "[7]": {"conditions": "shake flask Log P values (lit.), Table 2"}, "[8]": {"conditions": "shake flask, literature, Table 3"}, "[9]": {"conditions": "shake flask, literature, Table 4"}, "[10]": {"conditions": "New Method Calc. Log P Y = 1.009X + 0.029"}}, "note": "Where two headings read alike, the source gives them in different places.", "data": [{"molecule": "O=c1cc[nH]c(=O)[nH]1", "note": "[standard 1, uracil]", "values": [{"measurement": "chromatographic logP", "setting": "Isocratic HPLC Log P", "value": -1.05}, {"measurement": "chromatographic logP", "setting": "[1]; [5]", "value": 0.32}]}, {"molecule": "NC(=O)c1ccccc1", "note": "[standard 2, benzamide]", "values": [{"measurement": "chromatographic logP", "setting": "Isocratic HPLC Log P", "value": 0.41}, {"measurement": "chromatographic logP", "setting": "[1]; [6]", "value": 0.58}, {"measurement": "chromatographic logP", "setting": "[1]; [5]", "value": 0.56}]}, {"molecule": "CNC(=O)c1ccccc1", "note": "[standard 3, N-methyl benzamide]", "values": [{"measurement": "Lit. Log P", "setting": "[2]; [7]", "value": 0.86}, {"measurement": "Lit. Log P", "setting": "[2]; [8]", "value": 0.86}, {"measurement": "Lit. Log P", "setting": "[2]; [9]", "value": 0.86}, {"measurement": "chromatographic logP", "setting": "Isocratic HPLC Log P", "value": 0.96}, {"measurement": "chromatographic logP", "setting": "[1]; [6]", "value": 0.75}, {"measurement": "chromatographic logP", "setting": "[1]; [5]", "value": 0.68}]}, {"molecule": "OCc1ccccc1", "note": "[standard 4, benzyl alcohol]", "values": [{"measurement": "chromatographic logP", "setting": "Isocratic HPLC Log P", "value": 0.96}, {"measurement": "chromatographic logP", "setting": "[1]; [5]", "value": 0.98}]}, {"molecule": "CC(=O)c1ccccc1", "note": "[standard 6, acetophenone]", "values": [{"measurement": "Lit. Log P", "setting": "[2]; [7]", "value": 2.13}, {"measurement": "Lit. Log P", "setting": "[2]; [8]", "value": 2.13}, {"measurement": "Lit. Log P", "setting": "[2]; [9]", "value": 2.13}, {"measurement": "chromatographic logP", "setting": "Isocratic HPLC Log P", "value": 2.54}, {"measurement": "chromatographic logP", "setting": "[1]; [6]", "value": 2.22}, {"measurement": "chromatographic logP", "setting": "[1]; [5]", "value": 1.94}]}, {"molecule": "Brc1ccccc1", "note": "[standard 7, bromobenzene]", "values": [{"measurement": "chromatographic logP", "setting": "physchem [3]; Log P calc. by slope", "value": 3.5}, {"measurement": "chromatographic logP", "setting": "physchem [3]; [10]", "value": 3.44}, {"measurement": "chromatographic logP", "setting": "physchem [4]", "value": 3.23}]}, {"molecule": "Cc1ccc(Cl)cc1", "note": "[standard 8, p-chloro toluene]", "values": [{"measurement": "chromatographic logP", "setting": "physchem [3]; Log P calc. by slope", "value": 3.74}, {"measurement": "chromatographic logP", "setting": "physchem [3]; [10]", "value": 3.74}, {"measurement": "chromatographic logP", "setting": "physchem [4]", "value": 3.57}]}, {"molecule": "CCOP(=S)(OCC)Oc1ccc([N+](=O)[O-])cc1", "note": "[standard 9, diethyl parathion]", "values": [{"measurement": "Isocratic Log P", "setting": "Isocratic HPLC Log P", "value": 3.39}]}, {"molecule": "c1ccc(-c2ccccc2)cc1", "note": "[standard 10, biphenyl]", "values": [{"measurement": "chromatographic logP", "setting": "physchem [3]; [10]", "value": 4.07}, {"measurement": "chromatographic logP", "setting": "physchem [4]", "value": 3.8}, {"measurement": "Log P calc. by slope", "setting": "[1]; calculated from Log K (capacity factor) with exponential equation Y=0.6972e^1.5966X", "value": 3.98}]}, {"molecule": "Cc1ccc2cc(C)ccc2c1", "note": "[standard 11, 2,6-dimethyl napthalene]", "values": [{"measurement": "Isocratic Log P", "setting": "Isocratic HPLC Log P", "value": 4.49}]}, {"molecule": "c1ccc2cc3ccccc3cc2c1", "note": "[standard 12, anthracene]", "values": [{"measurement": "chromatographic logP", "setting": "physchem [3]; Log P calc. by slope", "value": 4.27}, {"measurement": "chromatographic logP", "setting": "physchem [4]", "value": 4.46}]}, {"molecule": "c1ccc(Sc2ccccc2)cc1", "note": "[standard 13, phenyl sulfide]", "values": [{"measurement": "Lit. Log P", "setting": "[2]; [7]", "value": 4.45}, {"measurement": "Lit. Log P", "setting": "[2]; [8]", "value": 4.45}, {"measurement": "Lit. Log P", "setting": "[2]; [9]", "value": 4.45}, {"measurement": "chromatographic logP", "setting": "Isocratic HPLC Log P", "value": 4.31}, {"measurement": "chromatographic logP", "setting": "[1]; [6]", "value": 4.17}, {"measurement": "chromatographic logP", "setting": "[1]; [5]", "value": 4.33}]}, {"molecule": "CCCN(CCC)c1c([N+](=O)[O-])cc(C(F)(F)F)cc1[N+](=O)[O-]", "note": "[standard 14, trifluralin]", "values": [{"measurement": "chromatographic logP", "setting": "physchem [3]; Log P calc. by slope", "value": 4.57}, {"measurement": "chromatographic logP", "setting": "physchem [3]; [10]", "value": 4.88}, {"measurement": "chromatographic logP", "setting": "physchem [4]", "value": 5}]}, {"molecule": "COc1ccc(C(c2ccc(OC)cc2)C(Cl)(Cl)Cl)cc1", "note": "[standard 15, methoxychlor]", "values": [{"measurement": "chromatographic logP", "setting": "physchem [3]; Log P calc. by slope", "value": 4.37}, {"measurement": "chromatographic logP", "setting": "physchem [3]; [10]", "value": 4.61}, {"measurement": "chromatographic logP", "setting": "physchem [4]", "value": 4.26}]}, {"molecule": "ClC(Cl)=C(c1ccc(Cl)cc1)c1ccc(Cl)cc1", "note": "[standard 16, DDE]", "values": [{"measurement": "Isocratic Log P", "setting": "Isocratic HPLC Log P", "value": 6.28}]}]}
